# Starred links: 1 amine or outer side, 2 acyl side, 3 side chain; linkers in the order of their positions; H or OH if unused. Positions of bridges follow the written chain, without caps; N, C: chain ends. Residues, ends and D or L forms follow the SMILES beside them. TBMB = c1c(C[*:1])cc(C[*:3])cc1C[*:2]; mXylylene = c1cc(C[*:1])cc(C[*:2])c1; oXylylene = c1ccc(C[*:2])c(C[*:1])c1; pXylylene = c1cc(C[*:2])ccc1C[*:1]; X3 = COc1cc(C[*:1])cc(C[*:2])c1
# Target: RbAp48 (Homo sapiens, UniProt Q09028)
# Experiment: Competitive fluorescence polarization (FP) assay using complex of peptide 1 and RbAp48
# Assay type: binding
# Design: Full length RbAp48 was cloned; His tag followed by 3C cleavage site (N, cleaved yes); made in house; host or cells: Sf9 insect cells
# Details: Supplemental Table 2; competitive FP, tracer 1 nM, RbAp48 15 nM, pH 7.5, 30 min room temperature; read-out: IC50
# Experimental: The binding affinity of our library of synthetic cyclic peptides was evaluated by a competitive fluorescence polarization (FP) assay using a complex formed by peptide 1 and RbAp48. To reduce the length of the peptide it was truncated to the amino acids which seemed most critical according to the crystal structure (residues 676–689, pdb:4pbz). […] We chose to use a cyclization approach to regain affinity, that is, not to induce more interactions but through minimizing the entropic penalty upon binding by reducing the flexibility of the peptide. To this end two amino acids were chosen which are facing one another in the structure (see Figure 1 B/D/E). Two peptides were designed where glutamic acid was used in position 676 (4) or position 680 (5) and lysine in position 688 for both peptides (see Table 1). The macrocycles were formed by connecting the side chains via an amide bond (see Figure 1 D/E). Peptide synthesis was performed on Rink‐amide resin using the Fmoc‐strategy incorporating Fmoc‐L‐Glu(All)‐OH and Fmoc‐L‐Lys(Alloc)‐OH at the sites for cyclization. After completion of the linear synthesis the allyl protecting groups were removed using Pd^0 catalysis and the amide link was formed by using PyBOP. […] Therefore, a range of peptides was synthesized which were cyclized using the same amino acid positions but via a cysteine alkylation strategy (see Figure 1 D/E and Table 1). In this method the residues used for cyclization are replaced with cysteine and benzylic dibromides act as crosslinkers on the unprotected peptides. ^[11] Previous research has shown that such linkers can effectively stabilize cyclic peptides and yield high affinity ligands for protein–protein interaction inhibition. ^[12] Such a linker introduces a xylene group in close vicinity of the hydrophobic patch potentially reconstituting the lost key hydrophobic interactions. To explore a variety of macrocycle conformations we used either ortho‐, meta‐ or para‐substituted dibromides to exchange the linker in both 4 and 5 (see Figure 1 D/E and Table 1). ^[13]
# Protein expression and purification
# RbAp48 was expressed and purified by the Dortmund Protein Facility. Full length RbAp48 was cloned into a pOPIN vector ligating it to an N-terminal His tag followed by a 3C cleavage site. The protein was expressed from Sf9 cells for 48 h. Cells were harvested and lysed and the protein was purified by loading onto a HisTrap FF crude 5 ml column followed by on-column cleavage using Precission protease. The cleaved protein was then further purified using a HiLoad 26/60 Superdex 200 column.
# Fluorescence polarization assay
# Fluorescence polarization assays were performed in 384 wells plates in 80 µl volumes. The assay buffer contains 20 mM Tris-HCl, 150 mM NaCl, 0.01% Tween-20 at pH 7.5. The concentration of the fluorescently labelled peptides was 1 nM plates were incubated at room temperature for 30 min before they were read on a Tecan Spark plate reader (λex = 485 nm, λem = 535 nm).
# For competitive assays the same conditions were used with a tracer concentration of 1 nM was used and a protein concentration of 15 nM .
# RbAp48, sequence (Q09028 whole entry): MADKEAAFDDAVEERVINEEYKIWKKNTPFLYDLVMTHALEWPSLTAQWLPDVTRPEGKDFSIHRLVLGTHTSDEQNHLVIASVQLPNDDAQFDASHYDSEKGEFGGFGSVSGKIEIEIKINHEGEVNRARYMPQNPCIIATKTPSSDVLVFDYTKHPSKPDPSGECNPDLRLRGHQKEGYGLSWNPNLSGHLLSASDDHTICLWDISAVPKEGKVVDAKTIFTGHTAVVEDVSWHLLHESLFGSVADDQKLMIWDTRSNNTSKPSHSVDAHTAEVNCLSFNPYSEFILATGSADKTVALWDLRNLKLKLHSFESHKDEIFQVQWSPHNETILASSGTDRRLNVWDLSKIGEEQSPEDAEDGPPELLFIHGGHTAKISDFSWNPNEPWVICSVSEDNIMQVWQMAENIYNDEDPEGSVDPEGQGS
row,IC50 [nM],SMILES
1,> 10000,CC(=O)N[C@H]1CSCc2ccc(cc2)CSC[C@@H](C(=O)N[C@@H](CC(N)=O)C(N)=O)NC(=O)[C@@H]2CCCN2C(=O)[C@H](CC(C)C)NC(=O)[C@H](Cc2ccc(O)cc2)NC(=O)[C@@H]2CCCN2C(=O)[C@H](Cc2c[nH]cn2)NC(=O)[C@H](CCCNC(=N)N)NC(=O)[C@H](C)NC(=O)[C@H](C)NC(=O)[C@H](Cc2c[nH]cn2)NC(=O)[C@H](Cc2c[nH]c3ccccc23)NC(=O)[C@@H]2CCCN2C1=O [Peptide 19] (Ac-CPWHAARHPYLPCN-NH2; linker 1-13 via pXylylene)
2,315 ± 57.8,CC(=O)N[C@H]1CSCc2cccc(c2)CSC[C@@H](C(=O)N[C@@H](C)C(N)=O)NC(=O)[C@@H]2CCCN2C(=O)[C@H](CCCCN)NC(=O)[C@H](Cc2ccc(O)cc2)NC(=O)[C@@H]2CCCN2C(=O)[C@H](CCCNC(=N)N)NC(=O)[C@H](CCCNC(=N)N)NC(=O)[C@H](C)NC(=O)[C@H](C)NC(=O)[C@H](CCCNC(=N)N)NC(=O)[C@H](Cc2c[nH]c3ccccc23)NC(=O)[C@H]([C@@H](C)O)NC1=O [Peptide 22] (Ac-CTWRAARRPYKPCA-NH2; linker 1-13 via mXylylene)
3,38.4 ± 3.8,COc1cc2cc(c1)CSC[C@@H](C(=O)N[C@@H](C)C(N)=O)NC(=O)[C@@H]1CCCN1C(=O)[C@H](CCCCN)NC(=O)[C@H](Cc1ccc(O)cc1)NC(=O)[C@@H]1CCCN1C(=O)[C@H](CCCNC(=N)N)NC(=O)[C@H](CCCNC(=N)N)NC(=O)[C@H](C)NC(=O)[C@H](C)NC(=O)[C@H](CCCNC(=N)N)NC(=O)[C@H](CCCCN)NC(=O)[C@H]([C@@H](C)O)NC(=O)[C@@H](NC(C)=O)CSC2 [Peptide 28] (Ac-CTKRAARRPYKPCA-NH2; linker 1-13 via X3 (inferred))

# Same assay, conditions: Table 1; competitive FP, tracer peptide 1 1 nM, RbAp48 15 nM, 20 mM Tris-HCl, 150 mM NaCl, 0.01% Tween-20, pH 7.5, 30 min room temperature; lower limit set by 15 nM protein; read-out: IC50
row,IC50 [nM],SMILES
1,19.8 ± 3.6,CC(=O)N[C@H]1CSCc2cc3cc(c2)CSC[C@@H](C(=O)N[C@@H](C)C(N)=O)NC(=O)[C@@H]2CCCN2C(=O)[C@H](C)NC(=O)[C@H](Cc2ccc(O)cc2)NC(=O)[C@@H]2CCCN2C(=O)[C@H](CCCNC(=N)N)NC(=O)[C@H](CCCNC(=N)N)NC(=O)[C@H](C)NC(=O)[C@H](CSC3)NC(=O)[C@H](CCCNC(=N)N)NC(=O)[C@H](CCCCN)NC(=O)[C@H]([C@@H](C)O)NC1=O [Peptide 44] (Ac-CTKRCARRPYAPCA-NH2; linker 1-5-13 via TBMB)
2,77.4 ± 9.6,CC(=O)N[C@H]1CSCc2cc3cc(c2)CSC[C@@H](C(=O)N[C@@H](C)C(N)=O)NC(=O)[C@@H]2CCCN2C(=O)[C@H](CCCCN)NC(=O)[C@H](Cc2ccc(O)cc2)NC(=O)[C@@H]2CCCN2C(=O)[C@H](CCCNC(=N)N)NC(=O)[C@H](CCCNC(=N)N)NC(=O)[C@H](C)NC(=O)[C@H](CSC3)NC(=O)[C@H](C)NC(=O)[C@H](CCCCN)NC(=O)[C@H]([C@@H](C)O)NC1=O [Peptide 39] (Ac-CTKACARRPYKPCA-NH2; linker 1-5-13 via TBMB)
3,24.6 ± 3.9,CC(=O)N[C@H]1CSCc2cc3cc(c2)CSC[C@@H](C(=O)N[C@@H](C)C(N)=O)NC(=O)[C@@H]2CCCN2C(=O)[C@H](CCCCN)NC(=O)[C@H](Cc2ccc(O)cc2)NC(=O)[C@@H]2CCCN2C(=O)[C@H](C)NC(=O)[C@H](CCCNC(=N)N)NC(=O)[C@H](C)NC(=O)[C@H](CSC3)NC(=O)[C@H](CCCNC(=N)N)NC(=O)[C@H](CCCCN)NC(=O)[C@H]([C@@H](C)O)NC1=O [Peptide 41] (Ac-CTKRCARAPYKPCA-NH2; linker 1-5-13 via TBMB)
4,263 ± 42.7,CC(=O)N[C@H]1CSCc2cc3cc(c2)CSC[C@@H](C(=O)N[C@@H](C)C(N)=O)NC(=O)[C@@H]2CCCN2C(=O)[C@H](CCCCN)NC(=O)[C@H](Cc2ccc(O)cc2)NC(=O)[C@@H]2CCCN2C(=O)[C@H](CCCNC(=N)N)NC(=O)[C@H](CCCNC(=N)N)NC(=O)[C@H](C)NC(=O)[C@H](CSC3)NC(=O)[C@H](CCCNC(=N)N)NC(=O)[C@H](C)NC(=O)[C@H]([C@@H](C)O)NC1=O [Peptide 38] (Ac-CTARCARRPYKPCA-NH2; linker 1-5-13 via TBMB)
5,20.5 ± 1.4,CC(=O)N[C@H]1CSCc2cc3cc(c2)CSC[C@H](NC(=O)[C@H](CCCNC(=N)N)NC(=O)[C@H](CCCCN)NC(=O)[C@H]([C@@H](C)O)NC1=O)C(=O)N[C@@H](C)C(=O)N[C@@H](CCCNC(=N)N)C(=O)N[C@@H](CCCNC(=N)N)C(=O)N1CCC[C@H]1C(=O)N[C@@H](Cc1ccc(O)cc1)C(=O)N[C@@H](CCCCN)C(=O)N1CCC[C@H]1C(=O)N[C@H](C(N)=O)CSC3 [Peptide 46] (Ac-CTKRCARRPYKPC-NH2; linker 1-5-13 via TBMB)

# Continued, molecule first:
row,SMILES,IC50 [nM]
1,CC(=O)N[C@H]1CSCc2cc3cc(c2)CSC[C@@H](C(=O)N[C@@H](CCCCN)C(N)=O)NC(=O)[C@H](CCCNC(=N)N)NC(=O)[C@@H]2CCCN2C(=O)[C@H](C)NC(=O)[C@H]([C@@H](C)O)NC(=O)[C@H](CCCCN)NC(=O)[C@H](Cc2ccc(O)cc2)NC(=O)[C@H](CCCNC(=N)N)NC(=O)[C@H](CSC3)NC(=O)[C@H](C)NC(=O)[C@H](CCCNC(=N)N)NC(=O)[C@@H]2CCCN2C1=O [Peptide 36] (Ac-CPRACRYKTAPRCK-NH2; linker 1-5-13 via TBMB),> 10000
2,CC(=O)N[C@@H](CCC(=O)O)C(=O)N[C@H](C(=O)N[C@@H](CCCCN)C(=O)N[C@@H](CCCNC(=N)N)C(=O)N[C@H]1CSCc2ccccc2CSC[C@@H](C(=O)N[C@@H](C)C(N)=O)NC(=O)[C@@H]2CCCN2C(=O)[C@H](CCCCN)NC(=O)[C@H](Cc2ccc(O)cc2)NC(=O)[C@@H]2CCCN2C(=O)[C@H](CCCNC(=N)N)NC(=O)[C@H](CCCNC(=N)N)NC(=O)[C@H](C)NC1=O)[C@@H](C)O [Peptide 10] (Ac-ETKRCARRPYKPCA-NH2; linker 5-13 via oXylylene),322 ± 56.8
3,CC(=O)N[C@@H](CCC(=O)O)C(=O)N[C@H](C(=O)N[C@@H](CCCCN)C(=O)N[C@@H](CCCNC(=N)N)C(=O)N[C@H]1CSCc2ccc(cc2)CSC[C@@H](C(=O)N[C@@H](C)C(N)=O)NC(=O)[C@@H]2CCCN2C(=O)[C@H](CCCCN)NC(=O)[C@H](Cc2ccc(O)cc2)NC(=O)[C@@H]2CCCN2C(=O)[C@H](CCCNC(=N)N)NC(=O)[C@H](CCCNC(=N)N)NC(=O)[C@H](C)NC1=O)[C@@H](C)O [Peptide 12] (Ac-ETKRCARRPYKPCA-NH2; linker 5-13 via pXylylene),2340 ± 363
4,CC(=O)N[C@H]1CCC(=O)NCCCC[C@@H](C(=O)N[C@@H](C)C(N)=O)NC(=O)[C@@H]2CCCN2C(=O)[C@H](CCCCN)NC(=O)[C@H](Cc2ccc(O)cc2)NC(=O)[C@@H]2CCCN2C(=O)[C@H](CCCNC(=N)N)NC(=O)[C@H](CCCNC(=N)N)NC(=O)[C@H](C)NC(=O)[C@H](C)NC(=O)[C@H](CCCNC(=N)N)NC(=O)[C@H](CCCCN)NC(=O)[C@H]([C@@H](C)O)NC1=O [Peptide 4] (Ac-ETKRAARRPYKPKA-NH2; lactam 1-13),47.7 ± 12.5
5,CC(=O)N[C@H]1CSCc2ccccc2CSC[C@@H](C(=O)N[C@@H](C)C(N)=O)NC(=O)[C@@H]2CCCN2C(=O)[C@H](CCCCN)NC(=O)[C@H](Cc2ccc(O)cc2)NC(=O)[C@@H]2CCCN2C(=O)[C@H](CCCNC(=N)N)NC(=O)[C@H](CCCNC(=N)N)NC(=O)[C@H](C)NC(=O)[C@H](C)NC(=O)[C@H](CCCNC(=N)N)NC(=O)[C@H](CCCCN)NC(=O)[C@H]([C@@H](C)O)NC1=O [Peptide 6] (Ac-CTKRAARRPYKPCA-NH2; linker 1-13 via oXylylene),77.4 ± 6.5
6,CC(=O)N[C@H]1CSCc2cc3cc(c2)CSC[C@@H](C(=O)N[C@@H](C)C(N)=O)NC(=O)[C@@H]2CCCN2C(=O)[C@H](CCCCN)NC(=O)[C@H](Cc2ccc(O)cc2)NC(=O)[C@@H]2CCCN2C(=O)[C@H](CCCNC(=N)N)NC(=O)[C@H](CCCNC(=N)N)NC(=O)[C@H](C)NC(=O)[C@H](CSC3)NC(=O)[C@H](CCCNC(=N)N)NC(=O)[C@H](CCCCN)NC(=O)[C@H](C)NC1=O [Peptide 37] (Ac-CAKRCARRPYKPCA-NH2; linker 1-5-13 via TBMB),12.4 ± 3.2

# Same assay, conditions: competitive FP assay
row,FP activity in words,SMILES
1,completely lose affinity,CC(=O)N[C@H]1CSCc2cc3cc(c2)CSC[C@@H](C(=O)N[C@@H](CCCCN)C(N)=O)NC(=O)[C@H](CCCNC(=N)N)NC(=O)[C@@H]2CCCN2C(=O)[C@H](C)NC(=O)[C@H]([C@@H](C)O)NC(=O)[C@H](CCCCN)NC(=O)[C@H](Cc2ccc(O)cc2)NC(=O)[C@H](CCCNC(=N)N)NC(=O)[C@H](CSC3)NC(=O)[C@H](C)NC(=O)[C@H](CCCNC(=N)N)NC(=O)[C@@H]2CCCN2C1=O [Peptide 36] (Ac-CPRACRYKTAPRCK-NH2; linker 1-5-13 via TBMB)

# From article PMC7894522, “Structure Based Design of Bicyclic Peptide Inhibitors of RbAp48” (Angewandte Chemie (International Ed. in English), 2020)
